Reference: PubChem BioAssay AID1963986 (Molecular Pharmacology Branch, DTP, NCI, 2024)

System: 171881-019-R-J1-PDC tumor spheroid viability
Assay: Anticancer human tumor 171881-019-R-J1-PDC patient-derived invasive breast carcinoma cell line growth inhibition [PI3K]
Settings: spheroids with HUVEC and MSC; for IC50: curve of first compound; for viability, T/C: stronger effect = lower value
Method in brief: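 Complex 3D spheroids (cancer cells + endothelial HUVEC + mesenchymal stem cells); drug pairs of targeted agent x inavolisib/alpelisib/duvelisib/copanlisib; half-log series from ~Cmax, max 10 microM if Cmax unknown; endpoint viability.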

[1] = second compound 0.0316 µM, first compound 0.0316 µM
[2] = second compound 0.0316 µM, first compound 0.1 µM
[3] = second compound 0.1 µM, first compound 0.0316 µM
[4] = second compound 0.1 µM, first compound 0.1 µM
[5] = second compound 0.316 µM, first compound 0.0316 µM
[6] = second compound 0.316 µM, first compound 0.1 µM
[7] = second compound 1 µM, first compound 0.0316 µM
[8] = second compound 1 µM, first compound 0.1 µM
[9] = second compound 3.16 µM, first compound 0.0316 µM
[10] = second compound 3.16 µM, first compound 0.1 µM
[11] = second compound 10 µM, first compound 0.0316 µM
[12] = second compound 10 µM, first compound 0.1 µM
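Further: spheroids exposed to compound for 7 days before viability read.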
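Wherever viability, T/C is given: 100% = DMSO vehicle-treated spheroids.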

C[C@@H](NC(=O)c1ncnc(N)c1Cl)c1ncc(C(=O)Nc2cc(C(F)(F)F)c(Cl)cn2)s1 + CC(Nc1ncnc2nc[nH]c12)c1cc2cccc(Cl)c2c(=O)n1-c1ccccc1
IC50 (second compound 0.0316 µM): > 10 µM | IC50 (second compound 0.1 µM): 9.46 µM | IC50 (second compound 0.316 µM): 8.25 µM | IC50 (second compound 1 µM): 7.02 µM | IC50 (second compound 3.16 µM): 3.02 µM | IC50 (second compound 10 µM): 0.666 µM | viability, T/C [1]: 76.3% | viability, T/C [2]: 81.8% | viability, T/C (second compound 0.0316 µM, first compound 0.316 µM): 86.3% | viability, T/C (second compound 0.0316 µM, first compound 1 µM): 104% | viability, T/C (second compound 0.0316 µM, first compound 3.16 µM): 79% | viability, T/C (second compound 0.0316 µM, first compound 10 µM): 51.3% | viability, T/C [3]: 92.4% | viability, T/C [4]: 96.4% | viability, T/C (second compound 0.1 µM, first compound 0.316 µM): 88.2% | viability, T/C (second compound 0.1 µM, first compound 1 µM): 93.4% | viability, T/C (second compound 0.1 µM, first compound 3.16 µM): 76.5% | viability, T/C (second compound 0.1 µM, first compound 10 µM): 48.5% | viability, T/C [5]: 92.7% | viability, T/C [6]: 78% | viability, T/C (second compound 0.316 µM, first compound 0.316 µM): 93.2% | viability, T/C (second compound 0.316 µM, first compound 1 µM): 83.2% | viability, T/C (second compound 0.316 µM, first compound 3.16 µM): 79.4% | viability, T/C (second compound 0.316 µM, first compound 10 µM): 44.1% | viability, T/C [7]: 99.6% | viability, T/C [8]: 92.8% | viability, T/C (second compound 1 µM, first compound 0.316 µM): 96.4% | viability, T/C (second compound 1 µM, first compound 1 µM): 93.8% | viability, T/C (second compound 1 µM, first compound 3.16 µM): 69.4% | viability, T/C (second compound 1 µM, first compound 10 µM): 41.4% | viability, T/C [9]: 90.1% | viability, T/C [10]: 74.8% | viability, T/C (second compound 3.16 µM, first compound 0.316 µM): 78% | viability, T/C (second compound 3.16 µM, first compound 1 µM): 77.9% | viability, T/C (second compound 3.16 µM, first compound 3.16 µM): 48.8% | viability, T/C (second compound 3.16 µM, first compound 10 µM): 30% | viability, T/C [11]: 63.8% | viability, T/C [12]: 60.8% | viability, T/C (second compound 10 µM, first compound 0.316 µM): 54.6% | viability, T/C (second compound 10 µM, first compound 1 µM): 48.5% | viability, T/C (second compound 10 µM, first compound 3.16 µM): 33.4% | viability, T/C (second compound 10 µM, first compound 10 µM): 21.2%

Cn1ncnc1[C@H]1c2n[nH]c(=O)c3cc(F)cc(c23)N[C@@H]1c1ccc(F)cc1 + CC(Nc1ncnc2nc[nH]c12)c1cc2cccc(Cl)c2c(=O)n1-c1ccccc1
IC50 (second compound 0.0316 µM): > 0.1 µM | IC50 (second compound 0.1 µM): > 0.1 µM | IC50 (second compound 0.316 µM): > 0.1 µM | IC50 (second compound 1 µM): > 0.1 µM | IC50 (second compound 3.16 µM): > 0.1 µM | IC50 (second compound 10 µM): > 0.1 µM | viability, T/C (second compound 0.0316 µM, first compound 0.000316 µM): 88.4% | viability, T/C (second compound 0.0316 µM, first compound 0.001 µM): 96.4% | viability, T/C (second compound 0.0316 µM, first compound 0.00316 µM): 93.4% | viability, T/C (second compound 0.0316 µM, first compound 0.01 µM): 104% | viability, T/C [1]: 97.3% | viability, T/C [2]: 92.1% | viability, T/C (second compound 0.1 µM, first compound 0.000316 µM): 102% | viability, T/C (second compound 0.1 µM, first compound 0.001 µM): 98.6% | viability, T/C (second compound 0.1 µM, first compound 0.00316 µM): 88.8% | viability, T/C (second compound 0.1 µM, first compound 0.01 µM): 109% | viability, T/C [3]: 90.6% | viability, T/C [4]: 102% | viability, T/C (second compound 0.316 µM, first compound 0.000316 µM): 93.2% | viability, T/C (second compound 0.316 µM, first compound 0.001 µM): 99.5% | viability, T/C (second compound 0.316 µM, first compound 0.00316 µM): 92.1% | viability, T/C (second compound 0.316 µM, first compound 0.01 µM): 106% | viability, T/C [5]: 90.1% | viability, T/C [6]: 95.8% | viability, T/C (second compound 1 µM, first compound 0.000316 µM): 82% | viability, T/C (second compound 1 µM, first compound 0.001 µM): 100% | viability, T/C (second compound 1 µM, first compound 0.00316 µM): 105% | viability, T/C (second compound 1 µM, first compound 0.01 µM): 103% | viability, T/C [7]: 97.1% | viability, T/C [8]: 98.2% | viability, T/C (second compound 3.16 µM, first compound 0.000316 µM): 83.5% | viability, T/C (second compound 3.16 µM, first compound 0.001 µM): 91.3% | viability, T/C (second compound 3.16 µM, first compound 0.00316 µM): 85.1% | viability, T/C (second compound 3.16 µM, first compound 0.01 µM): 93.2% | viability, T/C [9]: 92.5% | viability, T/C [10]: 78.1% | viability, T/C (second compound 10 µM, first compound 0.000316 µM): 61.6% | viability, T/C (second compound 10 µM, first compound 0.001 µM): 64.7% | viability, T/C (second compound 10 µM, first compound 0.00316 µM): 60.5% | viability, T/C (second compound 10 µM, first compound 0.01 µM): 60.8% | viability, T/C [11]: 57.2% | viability, T/C [12]: 57.6%
